Patent US20230091047A1 (priority 2019, published 2023)

Legend:
[1] = system: HBV (HepG2.117 cell line, inducibly HBV producing); assay: Anti-HBV activity: intracellular HBV DNA by real-time PCR in HepG2.117 cells after 3 days of treatment; format: cell-based, hepatitis B virus; settings: Hepatitis B virus, HepG2.117, 72 h, HepG2.117 cells, 3 days of treatment, intracellular HBV DNA by real-time PCR; mean value; read-out: EC50 (μM, mean value)
Procedure, shortened: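 Inducible HBV-producing HepG2.117 line (Tet-off); 3-day exposure to serially diluted compound after induction; real-time PCR of intracellular viral DNA.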

in vitro = format: cell-based; settings: human, HepG2 or HepG2.117 cells, 3-days incubation (unmarked values), ATPlite; mean value
Procedure, shortened: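 Luminescent ATP quantitation served as the viability endpoint following a 3- or 4-day incubation with test compounds.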

| SMILES | EC50 [1] [µM] | CC50 at 3 days (in vitro) [µM] |
| --- | --- | --- |
| COc1ccc(CNc2nc3c(c(=O)[nH]2)CCN(C(=O)c2ccc(Cl)cc2)C3)cc1 [Compound C115, 7-(4-chlorobenzoyl)-2-{[(4-methoxyphenyl)methyl]amino}-5,6,7,8-tetrahydropyrido[3,4-d]pyrimidin-4(3H)-one] | 37.1 | 42.8 |
| COc1ccc(CNc2nc3c(c(=O)[nH]2)CCN(C(=O)c2ccc(Br)cc2)C3)cc1 [Compound C116, 7-(4-bromobenzoyl)-2-{[(4-methoxyphenyl)methyl]amino}-5,6,7,8-tetrahydropyrido[3,4-d]pyrimidin-4(3H)-one] | 21.6 | 27.4 |
| COc1ccc(CNc2nc3c(c(=O)[nH]2)CCN(C(=O)c2ccc(I)cc2)C3)cc1 [Compound C117, 7-(4-iodobenzoyl)-2-{[(4-methoxyphenyl)methyl]amino}-5,6,7,8-tetrahydropyrido[3,4-d]pyrimidin-4(3H)-one] | 9.61 | 43.5 |
| COc1ccc(CNc2nc3c(c(=O)[nH]2)CCN(C(=O)c2ccc(C(F)(F)F)cc2)C3)cc1 [Compound C118, 2-{[(4-methoxyphenyl)methyl]amino}-7-[4-(trifluoromethyl)benzoyl]-5,6,7,8-tetrahydropyrido[3,4-d]pyrimidin-4(3H)-one] | 22 | 39 |
| COc1ccc(CNc2nc3c(c(=O)n2C2CCS(=O)(=O)CC2)CCN(C(=O)c2ccc(Cl)c(Cl)c2)C3)cc1 [Compound C119, 4-[7-(3,4-dichlorobenzoyl)-2-{[(4-methoxyphenyl)methyl]amino}-4-oxo-5,6,7,8-tetrahydropyrido[3,4-d]pyrimidin-3(4H)-yl]-1λ^6-thiane-1,1-dione] | 6.95 | 33.5 |
| CC(C)Nc1nc2c(c(=O)n1C1CCS(=O)(=O)CC1)CCN(C(=O)c1ccc(Cl)c(Cl)c1)C2 [Compound C120, 4-[7-(3,4-dichlorobenzoyl)-4-oxo-2-[(propan-2-yl)amino]-5,6,7,8-tetrahydropyrido[3,4-d]pyrimidin-3(4H)-yl]-1λ^6-thiane-1,1-dione] | 7.36 | > 50 |
| CCOC(=O)c1ccc(-n2c(NCc3ccc(OC)cc3)nc3c(c2=O)CCN(C(=O)c2ccc(Cl)c(Cl)c2)C3)cc1 [Compound C121, ethyl 4-[7-(3,4-dichlorobenzoyl)-2-{[(4-methoxyphenyl)methyl]amino}-4-oxo-5,6,7,8-tetrahydropyrido[3,4-d]pyrimidin-3(4H)-yl]benzoate] | 1.55 | > 50 |
| CC(C)Nc1nc2c(c(=O)n1-c1ccncc1)CCN(C(=O)c1ccc(Cl)c(Cl)c1)C2 [Compound C122, 7-(3,4-dichlorobenzoyl)-2-[(propan-2-yl)amino]-3-(pyridin-4-yl)-5,6,7,8-tetrahydropyrido[3,4-d]pyrimidin-4(3H)-one] | 1.44 | > 50 |
| COc1ccc(CNc2nc3c(c(=O)n2-c2ccncc2)CCN(C(=O)c2ccc(Cl)c(Cl)c2)C3)cc1 [Compound C123, 7-(3,4-dichlorobenzoyl)-2-{[(4-methoxyphenyl)methyl]amino}-3-(pyridin-4-yl)-5,6,7,8-tetrahydropyrido[3,4-d]pyrimidin-4(3H)-one] | 1.23 | 24.4 |
| COc1ccc(CNc2nc3c(c(=O)n2-c2ccc(C(=O)O)cc2)CCN(C(=O)c2ccc(Cl)c(Cl)c2)C3)cc1 [Compound C124, 4-[7-(3,4-dichlorobenzoyl)-2-{[(4-methoxyphenyl)methyl]amino}-4-oxo-5,6,7,8-tetrahydropyrido[3,4-d]pyrimidin-3(4H)-yl]benzoic acid] | 36.8 | > 50 |
| COc1ccc(CNc2nc3c(c(=O)n2-c2ccc(Br)cc2)CCN(C(=O)c2ccc(Cl)c(Cl)c2)C3)cc1 [Compound C125, 3-(4-bromophenyl)-7-(3,4-dichlorobenzoyl)-2-{[(4-methoxyphenyl)methyl]amino}-5,6,7,8-tetrahydropyrido[3,4-d]pyrimidin-4(3H)-one] | 1.64 | > 50 |
| COc1ccc(CNc2nc3c(c(=O)n2-c2ccc(C(C)=O)cc2)CCN(C(=O)c2ccc(Cl)c(Cl)c2)C3)cc1 [Compound C126, 3-(4-acetylphenyl)-7-(3,4-dichlorobenzoyl)-2-{[(4-methoxyphenyl)methyl]amino}-5,6,7,8-tetrahydropyrido[3,4-d]pyrimidin-4(3H)-one] | 1.51 | > 50 |
| CC(=O)c1ccc(-n2c(NC(C)C)nc3c(c2=O)CCN(C(=O)c2ccc(Cl)c(Cl)c2)C3)cc1 [Compound C127, 3-(4-acetylphenyl)-7-(3,4-dichlorobenzoyl)-2-[(propan-2-yl)amino]-5,6,7,8-tetrahydropyrido[3,4-d]pyrimidin-4(3H)-one] | 1.28 | > 50 |
| COc1ccc(CNc2nc3c(c(=O)n2-c2ccc(N4CCOCC4)cc2)CCN(C(=O)c2ccc(Cl)c(Cl)c2)C3)cc1 [Compound C128, 7-(3,4-dichlorobenzoyl)-2-{[(4-methoxyphenyl)methyl]amino}-3-[4-(morpholin-4-yl)phenyl]-5,6,7,8-tetrahydropyrido[3,4-d]pyrimidin-4(3H)-one] | 1.06 | > 50 |
| CNC(=O)c1ccc(-n2c(NCc3ccc(OC)cc3)nc3c(c2=O)CCN(C(=O)c2ccc(Cl)c(Cl)c2)C3)cc1 [Compound C129, 4-[7-(3,4-dichlorobenzoyl)-2-{[(4-methoxyphenyl)methyl]amino}-4-oxo-5,6,7,8-tetrahydropyrido[3,4-d]pyrimidin-3(4H)-yl]-N-methylbenzamide] | 0.44 | 44.4 |
| CC(C)Nc1nc2c(c(=O)n1-c1ccc(N3CCOCC3)cc1)CCN(C(=O)c1ccc(Cl)c(Cl)c1)C2 [Compound C130, 7-(3,4-dichlorobenzoyl)-3-[4-(morpholin-4-yl)phenyl]-2-[(propan-2-yl)amino]-5,6,7,8-tetrahydropyrido[3,4-d]pyrimidin-4(3H)-one] | 0.48 | > 50 |
| COc1ccc(CNc2nc3c(c(=O)n2-c2ccc4ncoc4c2)CCN(C(=O)c2ccc(Cl)c(Cl)c2)C3)cc1 [Compound C131, 3-(1,3-benzoxazol-6-yl)-7-(3,4-dichlorobenzoyl)-2-{[(4-methoxyphenyl)methyl]amino}-5,6,7,8-tetrahydropyrido[3,4-d]pyrimidin-4(3H)-one] | 0.53 | > 50 |
| CC(C)Nc1nc2c(c(=O)n1-c1ccc(S(C)(=O)=O)cc1)CCN(C(=O)c1ccc3occc3c1)C2 [Compound C132, 7-(1-benzofuran-5-carbonyl)-3-[4-(methanesulfonyl)phenyl]-2-[(propan-2-yl)amino]-5,6,7,8-tetrahydropyrido[3,4-d]pyrimidin-4(3H)-one] | 0.7 | > 50 |
| CC(C)Nc1nc2c(c(=O)n1-c1ccc(S(C)(=O)=O)cc1)CCN(C(=O)c1[nH]c3ccccc3c1Cl)C2 [Compound C133, 7-(3-chloro-1H-indole-2-carbonyl)-3-[4-(methanesulfonyl)phenyl]-2-[(propan-2-yl)amino]-5,6,7,8-tetrahydropyrido[3,4-d]pyrimidin-4(3H)-one] | 1.94 | 28.3 |
| CC(C)Nc1nc2c(c(=O)n1-c1ccnnc1)CCN(C(=O)c1ccc(Cl)c(Cl)c1)C2 [Compound C134, 7-(3,4-dichlorobenzoyl)-2-[(propan-2-yl)amino]-3-(pyridazin-4-yl)-5,6,7,8-tetrahydropyrido[3,4-d]pyrimidin-4(3H)-one] | 4.39 | > 50 |
| COc1ccc(CNc2nc3c(c(=O)n2-c2ccnnc2)CCN(C(=O)c2ccc(Cl)c(Cl)c2)C3)cc1 [Compound C135, 7-(3,4-dichlorobenzoyl)-2-{[(4-methoxyphenyl)methyl]amino}-3-(pyridazin-4-yl)-5,6,7,8-tetrahydropyrido[3,4-d]pyrimidin-4(3H)-one] | 1.13 | 23.3 |
| CC(C)Nc1nc2c(c(=O)n1-c1ccc(S(C)(=O)=O)cc1)CCN(C(=O)c1cc3cc(F)ccc3[nH]1)C2 [Compound C136, 7-(5-fluoro-1H-indole-2-carbonyl)-3-[4-(methanesulfonyl)phenyl]-2-[(propan-2-yl)amino]-5,6,7,8-tetrahydropyrido[3,4-d]pyrimidin-4(3H)-one] | 0.24 | > 50 |
| CC(C)Nc1nc2c(c(=O)n1-c1ccc(S(C)(=O)=O)cc1)CCN(C(=O)c1cc3ccc(F)cc3[nH]1)C2 [Compound C137, 7-(6-fluoro-1H-indole-2-carbonyl)-3-[4-(methanesulfonyl)phenyl]-2-[(propan-2-yl)amino]-5,6,7,8-tetrahydropyrido[3,4-d]pyrimidin-4(3H)-one] | 0.3 | > 50 |
| CC(C)Nc1nc2c(c(=O)n1-c1ccc(S(C)(=O)=O)cc1)CCN(C(=O)c1ccn3nccc3c1)C2 [Compound C138, 3-[4-(methanesulfonyl)phenyl]-2-[(propan-2-yl)amino]-7-(pyrazolo[1,5-a]pyridine-5-carbonyl)-5,6,7,8-tetrahydropyrido[3,4-d]pyrimidin-4(3H)-one] | 5.98 | > 50 |
| CC(C)Nc1nc2c(c(=O)n1-c1ccc(S(C)(=O)=O)cc1)CCN(C(=O)c1ccc3ccoc3c1)C2 [Compound C139, 7-(1-benzofuran-6-carbonyl)-3-[4-(methanesulfonyl)phenyl]-2-[(propan-2-yl)amino]-5,6,7,8-tetrahydropyrido[3,4-d]pyrimidin-4(3H)-one] | 11.2 | > 50 |
| COc1ccc(CNc2nc3c(c(=O)n2-c2ccc(S(C)(=O)=O)cc2)C[C@H](C)N(C(=O)c2ccc(Cl)c(Cl)c2)C3)cc1 [Compound C140, (6S)-7-(3,4-dichlorobenzoyl)-3-[4-(methanesulfonyl)phenyl]-2-{[(4-methoxyphenyl)methyl]amino}-6-methyl-5,6,7,8-tetrahydropyrido[3,4-d]pyrimidin-4(3H)-one] | 1.88 | > 50 |
